Laboratory results as given in patent publication EP0470323A2, “New salts of the nicotinic acid with aminobenzylic compounds and their pharmaceutical use” (BROMLEY LIMITED, priority 1990, dated 1992).

Experiments:
[1] = test system: Central artery of a rabbit's ear; test: In vitro antispastic action, adrenalin-induced spasm of the perfused isolated artery; conditions: spasm induced by Adrenalin, n=4, listed as Compound accord.Ex.1
Method: An "in vitro" method has been used, according to which the withdrawal of the central artery of a rabbit's ear with the relevant nervous connections and the equipment of an appropriate seat for secluded organs was designed (Fleckenstein A., British Journal of Pharmacology 7, 533, 1952).
On the artery they did install a three-ways tube, connected with a peristaltic pump and with a mercury manometer to record the perfusion pressure. The artery was perfused with a rebs liquid at the speed of 2,5 ml/minute. The contractions were induced by injecting into the vessel 0,1 ml adrenalin at the concentration of 1 mcg/ml. The compound according to the example 1 has been added to the bath at concentrations of 0,5 - 1 - 2 uM, five minutes before the adrenalin (four preparations per concentration). As comparison drugs, chlorhydra ted Buflomedil and Papaverin have been used. The activity of the material under investigation has been appreciated in terms of percentages referring to the concentration induced by the Adrenalin (and expressed with DE₅₀) and the relevant forbidding.

[2] = test system: skin temperature of the mouse's paw; test: Peripheral vessel-dilating activity in the mouse (skin temperature of hind paws); assay type: in vivo; conditions: for Temperature (°C) of the hind paws (n=10): intravenous; for Temperature (°C) of the hind paws: oral
Method: The method of Richter W. (Acta Pharm. Toxicol. 21, 91; 1974) was used; it consists in determining, at fixed time intervals after the treatment, the skin temperature of the mouse's paw, by keeping the animals in rooms at a constant temperature of 21°C.
Some groups of ten male mouses each have been used; the weight of each animal was 30 g approximately.
The compound according to the Example 1 has been tested "per os" at three basic levels of the doses (0,125 - 0,25 - 0,5 mM/kg) and by intravenous injection at two dose levels (0,015 and 0,03 mM/kg), in comparison with one sole dose of Papaverin and chlorhydrated Buflomedil (0,5 mM/kg "per os" and 0,03m M/kg intravenous). The observation of the skin temperature at the mouse's paw was made before the treatment, 30, 60 and 120 minutes after the "per os" treatment, […] (A-Hl Ellab) connected with an Ellab electric recorder. Of each animal the temperature of both hind paws has been measured, and the values obtained have been averaged .

[3] = test system: hypertrigliceridaemia from olive oil in the rats; test: Hypertriglyceridaemia from olive oil in the rat (serum lactescence); assay type: in vivo
Method: The method described by Zucker I.H. (Sci. Anal. Lab. 24, 114, 1972) has been followed.
Male rats have been used, whose body weight was 150-200 g. The animals were without eating with water "ad libitum" and all this beginning 24 hours before the experiment. The hyperlipaemia was induced by the administration of olive oil by mouth; its composition as to the fat acids was as follows: palmitic acid 10% palmitoleic acid 1%, stearic acid 3%, […] and linoleic acid 7% (all percentages are by weight). The quantity of olive oil administered, by means of a gastric probe, was 10 ml/kg. The treatments were made by finely pounding with a china mortar and by suspending in the olive oil the examined compounds. […] The positive control animals received only olive oil; moreover, there was also a group of negative control animals who received plain water in quantities of 10 ml/kg. Every three hours a group of rats (10) was killed in a light ethereal anaesthesia, in order to be able to appreciate the percentage of triglycerides in the blood. The animals were bled by cutting them the carotids and the blood was collected in plastic test-tubes, capacity 10 ml each, and was centrifuged for ten minutes at 3500 rpm. The evaluated parameter was the lactescence of the serum, which is directly proportional to the contents of kilomicrons and therefore of triglycerides (Zucker, see above the mention). The serum has been diluted 1:5 in a physiologic solution and was read at the spectrophotometer at […] against white (physiologic solution). From the individual optical Density (D.O.) data one could calculate for each group the average of the standard error. The statistical analysis was performed by means of the t of Dunnett.

## COc1cc(OC)c(C(=O)CCCN2CCCC2)c(OC)c1 [Example 1, 4-(1 pyrrholydinyl)-1-(2,4,6 trimethoxypheniyl)-1-nicotinized butanone]
[1]; concentration 0,5 μ M
  % inhibi-tions of the con-tractions: 45%
[1]; concentration 1,0 μ M
  % inhibi-tions of the con-tractions: 70%
[1]; concentration 2,0 μ M
  % inhibi-tions of the con-tractions: 94%
[1]; read-out: DE50 (the source's name)
  EC50: 580 nM
[2]; dose 0,015 mM/kg/iv, 0 minutes (before the treatment)
  Temperature (°C) of the hind paws (n=10): 24,3 ± 0,25 °C
[2]; dose 0,015 mM/kg/iv, 30 minutes from the treatment
  Temperature (°C) of the hind paws (n=10): 25,9 ± 0,18 °C
[2]; dose 0,015 mM/kg/iv, 60 minutes from the treatment
  Temperature (°C) of the hind paws (n=10): 25,8 ± 0,30 °C
[2]; dose 0,015 mM/kg/iv, 120 minutes from the treatment
  Temperature (°C) of the hind paws (n=10): 25,4 ± 0,22 °C
[2]; dose 0,030 mM/kg/iv, 0 minutes (before the treatment), listed as Compound according to the Ex.1
  Temperature (°C) of the hind paws (n=10): 24,2 ± 0,20 °C
[2]; dose 0,030 mM/kg/iv, 30 minutes from the treatment, listed as Compound according to the Ex.1
  Temperature (°C) of the hind paws (n=10): 26,7 ± 0,31 °C
[2]; dose 0,030 mM/kg/iv, 60 minutes from the treatment, listed as Compound according to the Ex.1
  Temperature (°C) of the hind paws (n=10): 26,5 ± 0,27 °C
[2]; dose 0,030 mM/kg/iv, 120 minutes from the treatment, listed as Compound according to the Ex.1
  Temperature (°C) of the hind paws (n=10): 26,3 ± 0,30 °C
[2]; dose 0,125 mM/kg/os, 0 minutes (before the treatment)
  Temperature (°C) of the hind paws: 24,3 ± 0,24 °C
[2]; dose 0,125 mM/kg/os, 30 minutes from the treatment
  Temperature (°C) of the hind paws: 24,7 ± 0,32 °C
[2]; dose 0,125 mM/kg/os, 60 minutes from the treatment
  Temperature (°C) of the hind paws: 024,9 ± 0,30 °C
[2]; dose 0,125 mM/kg/os, 120 minutes from the treatment
  Temperature (°C) of the hind paws: 25,2 ± 0,35 °C
[2]; dose 0,250 mM/kg/os, 0 minutes (before the treatment)
  Temperature (°C) of the hind paws: 24,7 ± 0,20 °C
[2]; dose 0,250 mM/kg/os, 30 minutes from the treatment
  Temperature (°C) of the hind paws: 25,2 ± 0,44 °C
[2]; dose 0,250 mM/kg/os, 60 minutes from the treatment
  Temperature (°C) of the hind paws: 25,8 ± 0,32 °C
[2]; dose 0,250 mM/kg/os, 120 minutes from the treatment
  Temperature (°C) of the hind paws: 25,5 ± 0,50 °C
[2]; dose 0,500 mM/kg/os, 0 minutes (before the treatment), listed as Compound according to the Example 1
  Temperature (°C) of the hind paws: 24,6 ± 0,25 °C
[2]; dose 0,500 mM/kg/os, 30 minutes from the treatment, listed as Compound according to the Example 1
  Temperature (°C) of the hind paws: 26,8 ± 0,30 °C
[2]; dose 0,500 mM/kg/os, 60 minutes from the treatment, listed as Compound according to the Example 1
  Temperature (°C) of the hind paws: 27,5 ± 0,40 °C
[2]; dose 0,500 mM/kg/os, 120 minutes from the treatment, listed as Compound according to the Example 1
  Temperature (°C) of the hind paws: 27,2 ± 0,45 °C
[3]; dose 1 mM/kg/os, 3 h
  Serum opt.density at the indicated times (M ± E.S.): 247 ± 15,3
[3]; dose 1 mM/kg/os, 6 h
  Serum opt.density at the indicated times (M ± E.S.): 1121 ± 51,6
[3]; dose 1 mM/kg/os, 9 h
  Serum opt.density at the indicated times (M ± E.S.): 987 ± 36,7
[3]; dose 1 mM/kg/os, 12 h
  Serum opt.density at the indicated times (M ± E.S.): 724 ± 28,4
[3]; dose 1 mM/kg/os, 15 h
  Serum opt.density at the indicated times (M ± E.S.): 458 ± 21,3
[3]; dose 1 mM/kg/os, 18 h
  Serum opt.density at the indicated times (M ± E.S.): 229 ± 22,6
[3]; dose 2 mM/kg/os, 3 h
  Serum opt.density at the indicated times (M ± E.S.): 271 ± 15,9
[3]; dose 2 mM/kg/os, 6 h
  Serum opt.density at the indicated times (M ± E.S.): 856 ± 44,2
[3]; dose 2 mM/kg/os, 9 h
  Serum opt.density at the indicated times (M ± E.S.): 624 ± 27,4
[3]; dose 2 mM/kg/os, 12 h
  Serum opt.density at the indicated times (M ± E.S.): 451 ± 26,2
[3]; dose 2 mM/kg/os, 15 h
  Serum opt.density at the indicated times (M ± E.S.): 294 ± 26,2
[3]; dose 2 mM/kg/os, 18 h
  Serum opt.density at the indicated times (M ± E.S.): 212 ± 28,3
[3]; dose 4 mM/kg/os, 3 h
  Serum opt.density at the indicated times (M ± E.S.): 260 ± 17,1
[3]; dose 4 mM/kg/os, 6 h
  Serum opt.density at the indicated times (M ± E.S.): 720 ± 43,8
[3]; dose 4 mM/kg/os, 9 h
  Serum opt.density at the indicated times (M ± E.S.): 612 ± 21,2
[3]; dose 4 mM/kg/os, 12 h
  Serum opt.density at the indicated times (M ± E.S.): 400 ± 28,3
[3]; dose 4 mM/kg/os, 15 h
  Serum opt.density at the indicated times (M ± E.S.): 226 ± 25,6
[3]; dose 4 mM/kg/os, 18 h
  Serum opt.density at the indicated times (M ± E.S.): 184 ± 16,2
